Activity calls are given as the source filed them. The rule behind the calls is not given here. Where a SMILES comes first, the peptide text is derived from it. The star is where a group is joined. Boc = CC(C)(C)OC(=O)*

Chain of Acetylcholinesterase (Homo sapiens) (P22303 whole entry): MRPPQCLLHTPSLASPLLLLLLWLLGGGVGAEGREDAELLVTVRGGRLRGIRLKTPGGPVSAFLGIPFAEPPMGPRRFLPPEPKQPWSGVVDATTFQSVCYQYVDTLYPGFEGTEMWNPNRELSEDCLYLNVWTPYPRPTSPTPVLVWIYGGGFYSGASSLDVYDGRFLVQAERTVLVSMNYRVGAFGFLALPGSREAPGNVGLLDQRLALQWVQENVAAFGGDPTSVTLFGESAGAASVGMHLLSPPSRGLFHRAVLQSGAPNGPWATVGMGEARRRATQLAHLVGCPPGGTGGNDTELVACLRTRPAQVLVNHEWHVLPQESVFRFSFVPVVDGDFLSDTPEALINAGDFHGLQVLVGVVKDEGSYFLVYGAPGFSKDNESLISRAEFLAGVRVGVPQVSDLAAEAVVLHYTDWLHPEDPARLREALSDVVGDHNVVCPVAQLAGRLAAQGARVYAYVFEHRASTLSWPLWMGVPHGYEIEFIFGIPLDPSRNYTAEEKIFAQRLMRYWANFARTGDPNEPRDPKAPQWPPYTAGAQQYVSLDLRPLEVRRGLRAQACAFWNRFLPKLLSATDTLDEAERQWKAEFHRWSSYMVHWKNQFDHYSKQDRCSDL

One assay addresses Acetylcholinesterase (Homo sapiens) (UniProt P22303). Put plainly: Inhibition of AChE (unknown origin) at 5000 nM by Ellman's method.
Usually inhibition stands for the drop in the measured response relative to a control, in per cent. `c1ccc2[nH]c(CN(CCN(Cc3nc4ccccc4[nH]3)Cc3nc4ccccc4[nH]3)Cc3nc4ccccc4[nH]3)nc2c1`: the inhibition result is “inactive”.

Take `c1ccc2[nH]c(SCCSc3nc4ccccc4[nH]3)nc2c1`: the inhibition entry was “inactive”.

For `c1ccc2c(CN3CCN(Cc4c[nH]c5ccccc45)CC3)c[nH]c2c1`, the inhibition result was “inactive”.

On to `Cc1cc(CSCCc2nc3ccccc3[nH]2)c(O)c(CSCCc2nc3ccccc3[nH]2)c1`, for which the inhibition entry was “inactive”.

A further assay deals with T1, Cholinesterase (Homo sapiens, UniProt P06276). Put plainly: Inhibition of BChE (unknown origin) at 5 uM incubated for 10 mins by Ellman's method relative to control.
T1 sequence (P06276 whole entry): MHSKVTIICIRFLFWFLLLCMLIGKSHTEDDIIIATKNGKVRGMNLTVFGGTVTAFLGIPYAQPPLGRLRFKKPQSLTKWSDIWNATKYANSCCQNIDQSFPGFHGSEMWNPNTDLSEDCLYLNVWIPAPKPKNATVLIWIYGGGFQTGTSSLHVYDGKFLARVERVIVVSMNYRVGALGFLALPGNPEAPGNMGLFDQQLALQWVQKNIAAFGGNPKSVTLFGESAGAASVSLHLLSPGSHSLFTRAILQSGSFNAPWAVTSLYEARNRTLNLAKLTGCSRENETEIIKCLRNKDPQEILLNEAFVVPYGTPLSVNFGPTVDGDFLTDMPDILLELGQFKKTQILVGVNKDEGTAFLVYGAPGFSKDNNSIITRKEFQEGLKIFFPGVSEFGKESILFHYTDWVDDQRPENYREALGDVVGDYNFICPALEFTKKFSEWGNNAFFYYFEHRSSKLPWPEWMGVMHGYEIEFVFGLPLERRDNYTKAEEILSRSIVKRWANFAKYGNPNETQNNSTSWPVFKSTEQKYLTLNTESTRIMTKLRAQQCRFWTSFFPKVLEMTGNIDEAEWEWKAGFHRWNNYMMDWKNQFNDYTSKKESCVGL
As for `O=c1[nH]c2cc(Cl)ccc2n1C1CCN(CCCC(c2ccc(F)cc2)c2ccc(F)cc2)CC1`, the inhibition worked out at 43.2%.

As to `c1ccc2[nH]c(CN(CCN(Cc3nc4ccccc4[nH]3)Cc3nc4ccccc4[nH]3)Cc3nc4ccccc4[nH]3)nc2c1`, the inhibition stood at 92%.

Take `Cn1c(=O)c2[nH]c(CCCc3nc4c([nH]3)c(=O)n(C)c(=O)n4C)nc2n(C)c1=O`: the inhibition turned out to be 19.1%.

On to `Cn1c(=O)c2[nH]c(CCCc3nc4c(c(=O)n(C)c(=O)n4C)n3C)nc2n(C)c1=O`, for which the inhibition was 25.3%.

Regarding `COC(=O)C(Cc1c[nH]c2ccccc12)NC(=O)C(Cc1c[nH]c2ccccc12)NC(=O)C(Cc1c[nH]c2ccccc12)NC(=O)C(Cc1c[nH]c2ccccc12)NC(=O)C(Cc1c[nH]c2ccccc12)NC(=O)C(Cc1c[nH]c2ccccc12)NC(=O)OC(C)(C)C` (stereo not drawn) (Boc-WWWWWW-OMe; configuration not given here), the inhibition is 46%.

`CCC(C)C(NC(=O)C(CC(C)C)NC(=O)C(N)Cc1c[nH]c2ccccc12)C(=O)NC(Cc1c[nH]c2ccccc12)C(=O)O` (stereo not drawn) (H-WLIW-OH; configuration not given here): the inhibition was found to be 38.9%.

For the compound `CCn1c(CCCc2nc3c(=O)n(C)c(=O)n(C)c3[nH]2)nc2c1c(=O)n(C)c(=O)n2C`, the inhibition amounted to 15.4%.

`Cc1ccc(S(=O)(=O)C(C#N)(Cc2c[nH]c3ccccc23)Cc2c[nH]c3ccccc23)cc1`: the inhibition is 48.5%.

Regarding `Cn1c(=O)c2nc(CCCCc3nc4ccccc4[nH]3)[nH]c2n(C)c1=O`, the inhibition came to 25.6%.

In the case of `Cc1cc(S(=O)(=O)N=c2[nH]c3ccccc3[nH]2)c(SCc2ccccc2)cc1Cl`, the inhibition is 65.7%.

For `COc1ccc(OC)c2[nH]c(CCc3nc4c(OC)ccc(OC)c4[nH]3)nc12`, the inhibition was 16.7%.

Take `O=C(Nc1ccccc1)c1cc(S(=O)(=O)Nc2nc3cccnc3[nH]2)c(SSc2cc(Cl)c(C(=O)Nc3ccccc3)cc2S(=O)(=O)Nc2nc3cccnc3[nH]2)cc1Cl`: the inhibition amounted to 9.9%.

`Cc1ccc(S(=O)(=O)OCC2CCc3[nH]c4ccccc4c3C2)cc1` (stereo not drawn): the inhibition worked out at 73.1%.

Take `Cc1cc(S(=O)(=O)NC2=Nc3cccc4cccc(c34)N2)c(S)cc1Cl`: the inhibition came out at 50.3%.

For the compound `CN(C)c1ccc(C=CC(=O)c2nc3ccccc3[nH]2)cc1`, the inhibition came out at 43.2%.

As for `COC(=O)C(Cc1c[nH]c2ccccc12)NC(=O)C(Cc1c[nH]c2ccccc12)NC(=O)C(Cc1c[nH]c2ccccc12)NC(=O)C(Cc1c[nH]c2ccccc12)NC(=O)OC(C)(C)C` (stereo not drawn) (Boc-WWWW-OMe; configuration not given here), the inhibition was determined as 51.2%.

On to `Cc1ccc2[nH]/c(=N/S(=O)(=O)c3cc(C)c(Cl)cc3S)[nH]c2c1`, for which the inhibition stood at 50.9%.

Consider `c1ccc2[nH]c(SCCSc3nc4ccccc4[nH]3)nc2c1`, for which the inhibition was 81.2%.

For `c1ccc2c(CN3CCN(Cc4c[nH]c5ccccc45)CC3)c[nH]c2c1`, the inhibition was 76.5%.

Regarding `Cn1c(=O)c2[nH]c(CCc3nc4c([nH]3)c(=O)n(C)c(=O)n4C)nc2n(C)c1=O`, the inhibition is 17.9%.

As for `COC(=O)[C@H](Cc1c[nH]c2ccccc12)NC(=O)[C@H](Cc1c[nH]c2ccccc12)NC(=O)[C@H](Cc1c[nH]c2ccccc12)NC(=O)OC(C)(C)C` (Boc-Trp-Trp-Trp-OMe), the inhibition was 79.9%.

With `Cc1[nH]c2ccccc2c1C1=CC(c2c(C)[nH]c3ccccc23)CCC1` (stereo not drawn), the inhibition amounted to 75%.

For `Cc1cc(S(=O)(=O)N=c2[nH]c3cccc(C)c3[nH]2)c(SCc2ccccc2)cc1Cl`, the inhibition was 55.6%.

Take `Cn1c(=O)c2[nH]c(C(O)C(O)c3nc4c([nH]3)c(=O)n(C)c(=O)n4C)nc2n(C)c1=O` (stereo not drawn): the inhibition was determined as 25%.

Take `Oc1ccc2[nH]c3c(c2c1)C[PH](Cc1cccc2ccccc12)(c1ccccc1)CC3`: the inhibition is 99.7%.

Turning to `Cc1nc(C(N)=S)sc1C(=O)CC(=O)C(=O)Nc1nc2ccccc2[nH]1`, the inhibition was 43.5%.

Consider `O=S(=O)(Cc1nc2ccccc2[nH]1)Cc1nc2ccccc2[nH]1`, for which the inhibition is 62%.

Turning to `Cn1c(=O)c2nc(CS(=O)(=O)Cc3nc4c(=O)n(C)c(=O)n(C)c4[nH]3)[nH]c2n(C)c1=O`, the inhibition is 8%.

Regarding `COC(=O)C(Cc1c[nH]c2ccccc12)NC(=O)C(Cc1c[nH]c2ccccc12)NC(=O)OCc1ccccc1` (stereo not drawn), the inhibition was found to be 92.9%.

For `Cc1cc(S(=O)(=O)Nc2nc3ccccc3[nH]2)c(S)cc1Cl`, the inhibition amounted to 48.5%.

For `Cc1cc2nc(C(O)C(O)C(O)C(O)c3nc4cc(C)c(C)cc4[nH]3)[nH]c2cc1C` (stereo not drawn), the inhibition was 4%.

Take `Cc1[nH]c2ccccc2c1C(=O)CC1(O)C(=O)Nc2c(Cl)cc(Cl)cc21` (stereo not drawn): the inhibition worked out at 47.5%.

Turning to `N#CC(C(=O)CCc1nc2ccccc2[nH]1)c1c(Cl)cccc1Cl` (stereo not drawn), the inhibition was found to be 32.7%.

Take `Fc1ccc2[nH]c3c(c2c1)C[PH](Cc1cccc2ccccc12)(c1ccccc1)CC3`: the inhibition is 97.5%.

Take `Cc1ccc2nc(CN(CCN(Cc3nc4ccc(C)cc4[nH]3)Cc3nc4ccc(C)cc4[nH]3)Cc3nc4ccc(C)cc4[nH]3)[nH]c2c1`: the inhibition worked out at 41.7%.

Take `Cc1c(C(=O)CSc2nc3ccccc3[nH]2)c(=O)n(-c2ccccc2)n1C`: the inhibition is 62.7%.

Take `Cc1cc(CSCCc2nc3ccccc3[nH]2)c(O)c(CSCCc2nc3ccccc3[nH]2)c1`: the inhibition amounted to 101%.

`Cn1c(=O)c2nc(COCc3nc4c(=O)n(C)c(=O)n(C)c4[nH]3)[nH]c2n(C)c1=O`: the inhibition stood at 26.5%.

On to `O=c1[nH]nc(Cc2ccc(Cl)cc2)n1N=Cc1c[nH]c2ccccc12`, for which the inhibition came to 20.7%.

The target of another assay is T1, Cholinesterase.
Description: Inhibition of BChE (unknown origin) incubated for 10 mins by Ellman's method
For orientation: IC50 means the point on the concentration scale where inhibition reaches its midpoint. Low readings indicate greater potency in that assay, high ones weaker potency in that assay. In the case of `c1ccc2[nH]c(CN(CCN(Cc3nc4ccccc4[nH]3)Cc3nc4ccccc4[nH]3)Cc3nc4ccccc4[nH]3)nc2c1`, the IC50 amounted to 1360 nM.

The compound `CCN(CC)C(C)CN1c2ccccc2Sc2ccccc21` (stereo not drawn) [ETHOPROPAZINE] registered an IC50 of 210 nM.

Regarding `c1ccc2[nH]c(SCCSc3nc4ccccc4[nH]3)nc2c1`, the IC50 stood at 3030 nM.

`c1ccc2c(CN3CCN(Cc4c[nH]c5ccccc45)CC3)c[nH]c2c1` gave an IC50 of 987 nM.

Consider `Cc1cc(CSCCc2nc3ccccc3[nH]2)c(O)c(CSCCc2nc3ccccc3[nH]2)c1`, for which half-maximal inhibition (IC50) required 32 nM.

The record behind these values is ChEMBL document CHEMBL4406906, “Discovery of potent and selective butyrylcholinesterase inhibitors through the use of pharmacophore-based screening” (Bioorg Med Chem Lett, 2019).
